Assay results as given in patent US12729377B2, “RNAi agents and compositions for inhibiting expression of angiopoietin-like 3 (ANGPTL3), and methods of use” (Arrowhead Pharmaceuticals, Inc., priority 2017, dated 2026).
In the oligonucleotide strings, read from the 5' end, every base follows the letter of its sugar. An asterisk marks phosphorothioate; unmarked linkages are phosphodiester. Other units and linkages are bracketed, terminal groups are in braces. A string of capitals states the bases alone. {NAG37} = tridentate N-acetyl-galactosamine targeting ligand, structure (NAG37)s; [invAb] = inverted abasic unit; m = 2'-O-methyl; f = 2'-fluoro

How the values were obtained:
ANGPTL3 gene [1] = assay: Example 11: dose response, serum triglycerides in mice; assay type: in vivo, C57bl/6 mice
Procedure: To assess the dose response of ANGPTL3 RNAi agent AD05488, six- to eight-week-old female C57bl/6 mice were used. Pre-dose serum samples were taken at day −1 after a four hour fast. At day 1, each mouse was given a single subcutaneous administration of 200 μl containing the respective mg/kg dose of an ANGPTL3 RNAi agent in D5W (dextrose in 5% water), or control (D5W) with no RNAi agent, according to the dosing groups recited in Table 53:
The RNAi agent tested (AD05488) included a modified sequence and an N-acetyl-galactosamine-containing targeting ligand conjugated to the 5′ terminal end of the sense strand. (See Tables 3, 4, and 5 for modified sequences and targeting ligand structures). The injections were performed between the skin and muscle (i.e. subcutaneous injections) into the loose skin over the neck and shoulder area. Four (4) mice in each group were tested (n=4). Serum was collected on days 8, 15, 22, and 29. Mice were fasted for four hours prior to each collection. ANGPTL3 protein levels in serum were measured by ELISA assay (R&D Systems), according to the manufacturer's recommendations. Triglycerides, total cholesterol, high-density lipoprotein (HDL), and low-density lipoprotein (LDL) in serum were measured on a Cobas® Integra 400 (Roche Diagnostics), according to the manufacturer's recommendations.
The ANGPTL3 protein levels, triglyceride levels, total cholesterol levels, HDL levels, and LDL levels for each animal were normalized. For normalization, the level of ANGPTL3 protein, triglyceride, HDL, and total cholesterol, respectively, for each animal at a time point, was divided by the pre-treatment level of expression in that animal (in this case at day −1) to determine the ratio of expression “normalized to pre-treatment.” Expression at a specific time point was then normalized to the D5W control group by dividing the “normalized to pre-treatment” ratio for an individual animal by the mean “normalized to pretreatment” ratio of all mice in the D5W control group.

ANGPTL3 gene [2] = assay: Example 12: serum total cholesterol in LDLR knockout mice; assay type: in vivo, LDLR KO mice
Description: To evaluate the effect of RNAi agent administration in a disease model, mice having a genetic mutation for the LDL receptor (referred to herein as LDLR KO mice) were commercially obtained (The Jackson Laboratory). The LDLR KO mice are homozygous for the Ldlr^tm1Her mutation, and have elevated serum cholesterol levels, particularly when placed on a high fat diet. For three weeks prior to the onset of the study, thirty-nine (39) LDLR KO mice were placed on a high fat diet (Teklad Custom Diets TD.88137). An additional eight (8) LDLR KO mice were placed on a normal chow diet over the same three-week period. Pre-dose serum samples were taken on day −15 and day −1 after a four hour fast. At day 1, each mouse was given a single subcutaneous administration of 200 μl/30 g animal body weight containing the respective mg/kg dose of an ANGPTL3 RNAi agent in D5W (dextrose in 5% water), control (D5W) with no RNAi agent, or a control RNAi agent that included a nucleotide sequence designed to target the Hepatitis B Virus (HBV) genome. A second injection of the same formulation was administered to the animals on day 29. The dosing regimen for the study is recited in the following Table 60:
Each mouse remained on its respective diet through the duration of study. The RNAi agent tested (AD05488) included a modified sequence and an N-acetyl-galactosamine-containing targeting ligand conjugated to the 5′ terminal end of the sense strand. (See Tables 3, […] modified sequences and targeting ligand structures). The injections were performed between the skin and muscle (i.e. subcutaneous injections) into the loose skin over the neck and shoulder area. Serum was collected on days 8, 15, 22, 29 (pre-second dose), 36, 43, 50, and 57. LDLR KO mice were fasted for four hours prior to each collection. On day 15, four (4) LDLR KO mice from Groups 1, 2, and 3 (i.e., the groups being administered the high fat “Western” diet) were sacrificed after serum collection, and on day 29, an additional four (4) LDLR KO mice from Groups 1, 2, and 3 were sacrificed after serum collection, for the purpose of performing mRNA assessments.
ANGPTL3 protein levels in serum were measured by ELISA assay (R&D Systems), according to the manufacturer's recommendations. Triglycerides, total cholesterol, high-density lipoprotein (HDL), and low-density lipoprotein (LDL) in serum were measured on a Cobas® Integra 400 (Roche Diagnostics), according to the manufacturer's recommendations.
The ANGPTL3 protein levels, triglyceride levels, total cholesterol levels, HDL levels, and LDL levels for each animal were normalized. For normalization, respective levels of ANGPTL3 protein, TG, total cholesterol, HDL, or LDL for each animal at a time point was divided by the average pre-treatment level of expression in that animal (in this case the average of day −15 and day −1) to determine the ratio of expression “normalized to pre-treatment.”
Expression at a specific time point was then normalized to the D5W control group that was administered the same diet (i.e., either the high fat “Western” diet or the normal chow-fed diet) by dividing the “normalized to pre-treatment” ratio for an individual animal by the mean “normalized to pretreatment” ratio of all mice in the D5W control group on the respective same diet, resulting in expression for each time point normalized to that in the control group.

With “AD05488: RNAi agent duplex: antisense AM07235-AS, sense AM07234-SS (antisense mU*fA*mC*fUmGfAmUfCmAfAmAfUmAfUmGfUmUfGmAfG*mC; sense {NAG37}*[invAb]*mGmCmUmCmAmAmCmAfUfAfUmUmUmGmAmUmCmAmGmUmA*[invAb])” as the substance, how does the “Avg TG (Triglycerides) Normalized to Pre-Treatment and Control” value (“Avg TG (Triglycerides) Normalized” below) (ANGPTL3 gene [1]; 0.05 mg/kg single sc day 1, Day 8) read?
Its value is 1.296.

What about the “Avg TG (Triglycerides) Normalized” value (ANGPTL3 gene [1]; 0.05 mg/kg single sc day 1, Day 15) of the same substance?
Its value is 1.274.

And the “Avg TG (Triglycerides) Normalized” value (ANGPTL3 gene [1]; 0.05 mg/kg single sc day 1, Day 22)?
The value was 1.202.

And the “Avg TG (Triglycerides) Normalized” value (ANGPTL3 gene [1]; 0.05 mg/kg single sc day 1, Day 29)?
The value was 1.999.

What about the “Avg TG (Triglycerides) Normalized” value (ANGPTL3 gene [1]; 0.1 mg/kg single sc day 1, Day 8) of the same substance?
The value was 1.116.

And the “Avg TG (Triglycerides) Normalized” value (ANGPTL3 gene [1]; 0.1 mg/kg single sc day 1, Day 15)?
Its value is 1.141.

And the “Avg TG (Triglycerides) Normalized” value (ANGPTL3 gene [1]; 0.1 mg/kg single sc day 1, Day 22)?
Its value is 1.234.

What about the “Avg TG (Triglycerides) Normalized” value (ANGPTL3 gene [1]; 0.1 mg/kg single sc day 1, Day 29) of the same substance?
The value was 1.798.

And the “Avg TG (Triglycerides) Normalized” value (ANGPTL3 gene [1]; 0.5 mg/kg single sc day 1, Day 8)?
The value was 1.028.

What about the “Avg TG (Triglycerides) Normalized” value (ANGPTL3 gene [1]; 0.5 mg/kg single sc day 1, Day 15) of the same substance?
The value was 1.027.

What about the “Avg TG (Triglycerides) Normalized” value (ANGPTL3 gene [1]; 0.5 mg/kg single sc day 1, Day 22) of the same substance?
Its value is 0.864.

What about the “Avg TG (Triglycerides) Normalized” value (ANGPTL3 gene [1]; 0.5 mg/kg single sc day 1, Day 29) of the same substance?
The value was 1.855.

And the “Avg TG (Triglycerides) Normalized” value (ANGPTL3 gene [1]; 1.0 mg/kg single sc day 1, Day 8)?
The value was 0.860.

What about the “Avg TG (Triglycerides) Normalized” value (ANGPTL3 gene [1]; 1.0 mg/kg single sc day 1, Day 15) of the same substance?
The value was 0.755.

And the “Avg TG (Triglycerides) Normalized” value (ANGPTL3 gene [1]; 1.0 mg/kg single sc day 1, Day 22)?
Its value is 0.720.

What about the “Avg TG (Triglycerides) Normalized” value (ANGPTL3 gene [1]; 1.0 mg/kg single sc day 1, Day 29) of the same substance?
Its value is 1.254.

And the “Avg TG (Triglycerides) Normalized” value (ANGPTL3 gene [1]; 2.5 mg/kg single sc day 1, Day 8)?
The value was 0.623.

And the “Avg TG (Triglycerides) Normalized” value (ANGPTL3 gene [1]; 2.5 mg/kg single sc day 1, Day 15)?
The value was 0.556.

What about the “Avg TG (Triglycerides) Normalized” value (ANGPTL3 gene [1]; 2.5 mg/kg single sc day 1, Day 22) of the same substance?
The value was 0.447.

What about the “Avg TG (Triglycerides) Normalized” value (ANGPTL3 gene [1]; 2.5 mg/kg single sc day 1, Day 29) of the same substance?
The value was 0.772.

And the “Avg TG (Triglycerides) Normalized” value (ANGPTL3 gene [1]; 5.0 mg/kg single sc day 1, Day 8)?
The value was 0.923.

And the “Avg TG (Triglycerides) Normalized” value (ANGPTL3 gene [1]; 5.0 mg/kg single sc day 1, Day 15)?
The value was 0.892.

What about the “Avg TG (Triglycerides) Normalized” value (ANGPTL3 gene [1]; 5.0 mg/kg single sc day 1, Day 22) of the same substance?
Its value is 0.781.

What about the “Avg TG (Triglycerides) Normalized” value (ANGPTL3 gene [1]; 5.0 mg/kg single sc day 1, Day 29) of the same substance?
Its value is 1.128.

What about the “reductions in total cholesterol” value (ANGPTL3 gene [2]; 3.0 mg/kg on days 1 and 29 (Groups 2 and 5), LDLR KO mice) of the same substance?
Its value is “significant reductions”.

And the “Avg Total Chol Normalized to Pre-Treatment and Control (Diet Matched)” value (“Avg Total Chol Normalized” for short) (ANGPTL3 gene [2]; 3.0 mg/kg sc day 1, High Fat Diet, Day 8)?
Its value is 0.524.

And the “Avg Total Chol Normalized” value (ANGPTL3 gene [2]; 3.0 mg/kg sc day 1, High Fat Diet, Day 15)?
Its value is 0.438.

And the “Avg Total Chol Normalized” value (ANGPTL3 gene [2]; 3.0 mg/kg sc day 1, High Fat Diet, Day 22)?
The value was 0.410.

And the “Avg Total Chol Normalized” value (ANGPTL3 gene [2]; 3.0 mg/kg sc day 1, High Fat Diet, Day 29 (pre-second dose))?
Its value is 0.410.

And the “Avg Total Chol Normalized” value (ANGPTL3 gene [2]; 3.0 mg/kg sc day 1, Normal Diet, Day 8)?
Its value is 0.645.

And the “Avg Total Chol Normalized” value (ANGPTL3 gene [2]; 3.0 mg/kg sc day 1, Normal Diet, Day 15)?
The value was 0.683.

What about the “Avg Total Chol Normalized” value (ANGPTL3 gene [2]; 3.0 mg/kg sc day 1, Normal Diet, Day 22) of the same substance?
The value was 0.691.

And the “Avg Total Chol Normalized” value (ANGPTL3 gene [2]; 3.0 mg/kg sc day 1, Normal Diet, Day 29 (pre-second dose))?
Its value is 0.636.

What about the “Avg Total Chol Normalized” value (ANGPTL3 gene [2]; 3.0 mg/kg sc days 1 and 29, High Fat Diet, Day 36) of the same substance?
Its value is 0.438.

What about the “Avg Total Chol Normalized” value (ANGPTL3 gene [2]; 3.0 mg/kg sc days 1 and 29, High Fat Diet, Day 43) of the same substance?
The value was 0.363.

And the “Avg Total Chol Normalized” value (ANGPTL3 gene [2]; 3.0 mg/kg sc days 1 and 29, High Fat Diet, Day 50)?
Its value is 0.374.

And the “Avg Total Chol Normalized” value (ANGPTL3 gene [2]; 3.0 mg/kg sc days 1 and 29, High Fat Diet, Day 57)?
Its value is 0.341.

What about the “Avg Total Chol Normalized” value (ANGPTL3 gene [2]; 3.0 mg/kg sc days 1 and 29, Normal Diet, Day 36) of the same substance?
The value was 0.758.

And the “Avg Total Chol Normalized” value (ANGPTL3 gene [2]; 3.0 mg/kg sc days 1 and 29, Normal Diet, Day 43)?
Its value is 0.657.

What about the “Avg Total Chol Normalized” value (ANGPTL3 gene [2]; 3.0 mg/kg sc days 1 and 29, Normal Diet, Day 50) of the same substance?
The value was 0.824.

What about the “Avg Total Chol Normalized” value (ANGPTL3 gene [2]; 3.0 mg/kg sc days 1 and 29, Normal Diet, Day 57) of the same substance?
The value was 0.684.
